The nature of data set [1]: Microsomal stability in human liver microsomes. Format: in vitro ADME. Particulars: parent remaining after 30mins incubation with human liver microsomes.
The nature of data set [2]: Metabolite identification in human liver microsomes with NADPH. The data set is classed as in vitro ADME. Particulars: human liver microsomes in the presence of NADPH, LC-MS/MS.

For the compound `CC(C)(C)C(=O)CCc1cnnn1-c1ccccc1` [Compound 13h], in data set [1], the HLM % parent is reported as 4%. Take `O=C(CCc1cnnn1-c1cccc(Cl)c1)c1ccccc1` [Compound 12e]: the metabolites formed entry in data set [2] was “two metabolites were formed with masses equal to (parent+2) and (parent+16)”.

Source of the values: paper PMC3972730 (Bioorganic & medicinal chemistry letters, 2010).
